Assay [1] has as its system head and neck cancer patients. Kind of assay: DAHANCA 5 trial: Nimorazole or placebo in conjunction with conventional radiotherapy, loco-regional tumour control. The format is in vivo, human. From the text: In order to test the predictive potential for hypoxic modification of radiotherapy obtained by nitroimidazoles, the 15-gene classifier was applied on all 323 HNSCC biopsies from patients enrolled in the DAHANCA 5 trial. […] Overall, the hypoxia classifier categorized 114 tumours (35%) as “more” hypoxic and 209 tumours (65%) as “less” hypoxic. […] No significant difference in loco-regional tumour control could be detected between the two groups if treatment intervention was ignored (p=0.07), (FIG. 3b). […] This hypothesis could not be supported by the 15-gene hypoxia classifier that identified similar relative distribution of “more” hypoxic tumours among the HPV/p16-positive tumours as among the HPV/p16-negative tumours (Table 5). Thus, it appears that the cause for different prognosis must be searched elsewhere and might be related to a reduced number of radio-resistant cancer stem cells in the HPV/p16-positive tumors.
Hypoxia responsive and pH independent genes were identified by microarray analysis (Affymetrix Human Genome U133 Plus 2.0 Array) of relevant cell lines of squamous cell carcinoma, which were cultured in vitro where microenvironment conditions had been manipulated (0.1% vs. 5% pO2 and 7.4 vs. 6.3 pH). In vivo validation was performed by converting the cell lines into a xenograft model and comparing the gene expression in hypoxic and non-hypoxic tumour areas (Wilcoxon signed rank analysis) guided by a well established hypoxic tracer and [^18F] FAZA. A hypoxia gene expression classifier was build by separating 58 previously hypoxia evaluated formalin fixated paraffin embedded (FFPE) head and neck tumour biopsies into “more” and “less” hypoxic tumours. […] Independent tumours were then to be classified to the group (“more” or “less” hypoxic), in which their gene expression expressed the greatest similarities. The classifier was tested in an independent set of 323 FFPE biopsies of head and neck cancer, were patients had been randomized and treated with either placebo or the hypoxic modifier Nimorazole in conjunction with conventional radiotherapy^4. We verified whether the 15-gene hypoxia classifier could identify a subset of tumours having benefit from Nimorazole in conjunction with radiotherapy, by comparing the clinical outcome and the response to hypoxic modification in the two classified groups with log-rank test, cox-regression analysis and test for interaction.
In vitro experiments were based on human squamous cell carcinoma cell lines UTSCC5, UTSCC14, UTSCC15 (oral carcinoma), FADUDD (hypopharyngeal carcinoma) and SiHa (uterine cervix carcinoma). Xenograft tumours for in vivo validation were generated with cell lines of UTSCC33, FADUDD or SiHa. The hypoxia classifier was generated from 58 previously hypoxia evaluated head and neck cancer biopsies archived as formalin fixated and paraffin embedded samples (FFPE). To test the prognostic and predictive impact of the developed classifier, we used 323 archival supraglottic larynx or pharynx tumour samples (FFPE) from the randomized, double blinded DAHANCA 5 trial.
H, N and M areas of the xenograft tumours were compared with the Wilcoxon's signed rank analysis. End point used in the evaluation of the classifier in the independent data set, was actuarial loco-regional tumour control probability at 5 years, defined as complete and persistent disappearance of the disease in the primary tumour (T site) and regional lymph nodes (N site) after radiotherapy. Failure was recorded in the event of recurrent tumour or if the tumour never completely disappeared. Follow-up was completed as part of the original study. […] Patient and tumour characteristics of the “more” and “less” hypoxic” groups divided by the hypoxia classifier were compared using the Chi Squared test for categorical variables. Loco-regional tumour control in the two groups was illustrated with a Kaplan Meier plot and compared using the log-rank test. […]

Assay [2] concerns head and neck cancer patients. Conditions: cited from earlier work.

Here are results for one compound from patent US10385399B2, “Method for determining clinically relevant hypoxia in cancer” (AARHUS UNIVERSITET, priority 2011, dated 2019).

On to `O=[N+]([O-])c1cncn1CCN1CCOCC1` [Nimorazole, 4-[2-(5-nitro-1H-imidazol-1-yl)ethyl]morpholine], for which the “HR (95% CI) loco-regional tumour control, Nimorazole vs placebo” value in assay [1] (Cox multivariate analysis, "Less" hypoxic group by 15-gene hypoxia classifier) was 0.97 (0.65-1.44); in assay [1] (Cox multivariate analysis, "More" hypoxic group by 15-gene hypoxia classifier), 0.44 (0.27-0.73); in assay [1] (Cox multivariate analysis, all patients (n = 323)), 0.70 (0.51-0.96); in assay [1] (Univariate analysis, "Less" hypoxic group by 15-gene hypoxia classifier (n = 209)) it was 0.85 (0.50-1.38); in assay [1] (Univariate analysis, "More" hypoxic group by 15-gene hypoxia classifier (n = 114)), 0.46 (0.29-0.75); in assay [1] (Univariate analysis, all patients (n = 323), with conventional radiotherapy), 0.72 (0.53-0.97). The “outcome in terms of loco-regional tumour control after radiotherapy vs placebo” value in assay [1] (all 323 HNSCC patients, irrespective of hypoxia classification, p=0.03) is “significantly improved outcome”. The “loco-regional tumour control after 5 years” value in assay [1] (group classified as "less" hypoxic, Nimorazole with radiotherapy (vs. 44%, p=0.42)) came out at 50%; in assay [1] (group classified as "more" hypoxic, Nimorazole with radiotherapy (placebo 18%, p=0.002)), 49%. In addition, the “outcome compared to placebo in conjunction with radiotherapy” value in assay [2] (DAHANCA 5 trial as described in the background, head and neck cancer patients) is recorded as “improved outcome”. The “effect on loco-regional tumour control of HPV/p16-positive tumors” value in assay [2] (HPV/p16-positive tumours, previously shown in the DAHANCA 5 study) is “without any beneficial effect”.
